Legend:
2a HCV RNA replicon = 2a HCV RNA replicon assay (FL-J6/JFH-5'C19Rluc2AUbi, luciferase); assay type: cell-based, Hepatitis C Virus genotype 2a; details: Hepatitis C virus, read-out: 2a (%) Percent of virus activity remaining in the presence of the compound
Text: Plasmids. Bart79I, a high-efficiency subgenomic replicon of HCV (28), harbors the neomycin resistance gene (neo) and the HCV nonstructural proteins. The Bart-Luciferase plasmid, Bart79I-luc, was cloned from the Bart791 parent (29) and the pGL3-Basic parent (Promega). In brief, a NotI site was introduced after the 15th amino acid of Core in Bart791 using PCR mutagenesis. The plasmid pcDNA3.1-NS4B, which encodes the Con1 NS4B sequence and was used to study the protein stability of the wild type and mutant NS4Bs, was described previously. To introduce the M2 mutation into the 4BAH2 of plasmids encoding HCV replicons or NS4B, the nucleotide sequence GCG that encodes for alanine at NS4B amino acid position 51 was changed to GAG (encoding for glutamate) and the nucleotide sequence TGG that encodes for tryptophan at amino acid position 55 was changed to GAT (encoding for aspartate) through the use of Quick-ChangeTMXL site-directed mutagenesis kit (Stratagene, La Jolla, Calif.) as described by the manufacturer and confirmed by sequencing. FL-J6/JFH-5′C19Rluc2AUbi, which is a monocistronic, full-length HCV genome that expresses Renilla luciferase (Rluc) and was derived from the previously described infectious genotype 2a HCV genome J6/JFH1.
(§1) Antiviral Assays of Compounds. Subconfluent Huh7.5 cells were trypsinized and collected by centrifugation at 700 g for 5 min. The cells were then washed three times in ice-cold RNasefree PBS buffer (BioWhittaker) and resuspended at 1.5×10^7 cells·ml^−1 in PBS buffer. Wild-type FL-J6/JFH-5′C19Rluc2AUbi and Bart79I-luc RNAs for electroporation were generated by in vitro transcription of XbaI (FL-J6/JFH-5′C19Rluc2AUbi) and ScaI (Bart791-luc)-linearized DNA templates using the T7 MEGAscript kit (Ambion), followed by phenol-chloroform purification and DEPC water suspension, 5 μg of RNA were mixed with 400 μl of washed Huh7.5 cells in a 2-mm-gap cuvette (BTX) and immediately pulsed (0.82 kV (FL-J6/JFH-5′C19Rluc2AUbi) and 0.68 kV (Bart79I-luc), five […] pulses) with a BTX-830 electroporator. After 10 min recovery at 25° C., pulsed cells were diluted into 20 ml of pre-warmed growth medium. Cells from several electroporations were pooled to a common stock and seeded in 96-well plates (17,000-20,000 cells per well). After 24 hr, compounds were added to the cells and media changes were performed daily with fresh compounds. After 72 hr of treatment, cells were incubated for 2 hr at 37° C. in the presence of 10% Alamar Blue reagent (TREK Diagnostic Systems) to assess for cytotoxicity. Plates were then scanned and fluorescence was detected by using a FLEXstation II 384 (Molecular Devices). The signal was normalized relative to untreated samples. Viral RNA replication was determined using Renilla (FL-J6/JFH-5′C19Rluc2AUbi) or firefly (Bart791-luc) luciferase assays, according to the manufacturer's (Promega) directions. The same samples subjected to the viability assay described below were analyzed in this assay. According to the manufacturer protocol, cells were washed with PBS buffer and shaken at room temperature for 15 min in 20 μl of lysis buffer. Reporter assays were performed directly in the wells of the culture plates by injecting 100 μl of the assay substrate into each well. Luminescence was measured over 10 seconds with a 2-second delay using a Berthold LB 96 V luminometer. Signal was normalized relative to untreated samples or samples grown in the presence of the corresponding concentration of DMSO. Experiments were repeated three times, each time with 4 replicates.

Huh7.5 cells = test: Alamar Blue cell viability assay; assay type: cell-based, human
Method: as §1, with “Plates were then scanned and fluorescence was detected by using a FLEXstation II 384 (Molecular Devices).” left out

HCV 1b RNA replicon = test: 1b HCV RNA replicon assay, Huh7 cell line with stable luciferase reporter; assay type: cell-based, Hepatitis C Virus genotype 1b; details: Huh7, stable LUC reporter; for IC50: Hepatitis C virus, Huh-7

SMILES	activity at 5 µM (2a HCV RNA replicon)	activity at 10 µM (2a HCV RNA replicon)	Cell Viability (%), alamar blue (Huh7.5 cells; 5 μM)	Cell Viability (%), alamar blue (Huh7.5 cells; 10 μM)	1b assay IC50 (HCV 1b RNA replicon)	IC50 (HCV 1b RNA replicon)
CC(C)CN(C)c1nc(N)c(C(=O)NCc2ccccc2)nc1Cl [ID 292, 3-amino-N-benzyl-6-chloro-5-(isobutyl(methyl)amino)pyrazine-2-carboxamide 2,2,2-trifluoroacetate]	39%	25%	80%	62%	inactive	–
Cc1cc(Cl)ncc1NC(=O)c1nc(Cl)c(N(C)CC(C)C)nc1N [ID 293, 3-amino-6-chloro-N-(6-chloro-4-methylpyridin-3-yl)-5-(isobutyl(methyl)amino)pyrazine-2-carboxamide bis(2,2,2-trifluoroacetate)]	34%	28%	71%	66%	inactive	–
CC(C)CN(C)c1nc(N)c(C(=O)NC2CCCCC2)nc1Cl.O=C(O)C(F)(F)F [ID 313, 3-amino-6-chloro-N-cyclohexyl-5-(isobutyl(methyl)amino)pyrazine-2-carboxamide 2,2,2-trifluoroacetate]	33%	12%	68%	48%	–	> 25 µM
CC(C)CN(C)c1nc(N)c(C(=O)NC2CCNCC2)nc1Cl.O=C(O)C(F)(F)F [ID 319, 3-amino-6-chloro-5-(isobutyl(methyl)amino)-N-(piperidin-4-yl)pyrazine-2-carboxamide 2,2,2-trifluoroacetate]	37%	11%	87%	75%	–	6.9 µM
CC(C)CN(C)c1nc(N)c(C(=O)NCC2CCCCC2)nc1Cl.O=C(O)C(F)(F)F [ID 320, 3-amino-6-chloro-N-(cyclohexylmethyl)-5-(isobutyl(methyl)amino)pyrazine-2-carboxamide 2,2,2-trifluoroacetate]	37%	17%	80%	59%	inactive	–
CC(C)CN(C)c1nc(N)c(C(=O)NCc2cccnc2)nc1Cl.O=C(O)C(F)(F)F [ID 341, 3-amino-6-chloro-5-(isobutyl(methyl)amino)-N-(pyridin-3-ylmethyl)pyrazine-2-carboxamide 2,2,2-trifluoroacetate]	30%	15%	77%	65%	inactive	–
CC(C)CN(C)c1nc(N)c(C(=O)NCc2ccncc2)nc1Cl.O=C(O)C(F)(F)F [ID 342, 3-amino-6-chloro-5-(isobutyl(methyl)amino)-N-(pyridin-4-ylmethyl)pyrazine-2-carboxamide 2,2,2-trifluoroacetate]	22%	12%	69%	56%	inactive	–
Cc1ccncc1NC(=O)c1cnc(N(C)CC(C)C)cn1 [ID 414, 5-(isobutyl(methyl)amino)-N-(4-methylpyridin-3-yl)pyrazine-2-carboxamide 2,2,2-trifluoroacetate]	60%	53%	100%	90%	–	–
Cc1ccncc1NC(=O)c1nc(Cl)c(N2CCOCC2)nc1N [ID 419, 3-amino-6-chloro-N-(4-methylpyridin-3-yl)-5-morpholinopyrazine-2-carboxamide 2,2,2-trifluoroacetate]	75%	51%	95%	77%	–	–
Cc1ccncc1NC(=O)c1nc(Cl)c(N2CCCC2)nc1N [ID 420, 3-amino-6-chloro-N-(4-methylpyridin-3-yl)-5-(pyrrolidin-1-yl)pyrazine-2-carboxamide 2,2,2-trifluoroacetate]	52%	49%	73%	72%	–	–
Cc1ccncc1NC(=O)c1nc(Cl)c(N(C)Cc2ccccc2)nc1N [ID 424, 3-amino-5-(benzyl(methyl)amino)-6-chloro-N-(4-methylpyridin-3-yl)pyrazine-2-carboxamide 2,2,2-trifluoroacetate]	70%	39%	98%	78%	–	–
Cc1ccncc1NC(=O)c1cnc(N(C)C(C)C)cn1 [ID 459, 5-(isopropyl(methyl)amino)-N-(4-methylpyridin-3-yl)pyrazine-2-carboxamide 2,2,2-trifluoroacetate]	22%	11%	64%	65%	–	–
CCN(CC)c1nc(N)c(C(=O)Nc2cnccc2C)nc1Cl [ID 460, 3-amino-6-chloro-5-(diethylamino)-N-(4-methylpyridin-3-yl)pyrazine-2-carboxamide 2,2,2-trifluoroacetate]	45%	22%	85%	73%	–	–
CCN(C)c1nc(N)c(C(=O)Nc2cnccc2C)nc1Cl [ID 469, 3-amino-6-chloro-5-(ethyl(methyl)amino)-N-(4-methylpyridin-3-yl)pyrazine-2-carboxamide 2,2,2-trifluoroacetate]	65%	42%	75%	71%	–	–
Cc1ccncc1NC(=O)c1cnc(N(C)CC(C)C)c(Cl)n1 [ID 473, 6-chloro-5-(isobutyl(methyl)amino)-N-(4-methylpyridin-3-yl)pyrazine-2-carboxamide 2,2,2-trifluoroacetate]	87%	73%	94%	95%	–	–

Reference: patent US20110217265A1, “Screening for Inhibitors of HCV Amphipathic Helix (AH) Function” (priority 2008, published 2011)
